# Measurements taken from patent US20210030829A1, “METHODS FOR TREATMENT OF CANCER AND ENHANCEMENT OF NANOPARTICLE ACCUMULATION IN TISSUES” (University of Louisville Research Foundation, Inc., priority 2018, published 2021).
# Set-up: species or system male C57BL/6 mice
# Settings: mouse, in vivo
smiles,measurement,value
"CCCCCCCCCCCCCCCCCCN1/C(=C/C=C/C=C/C=C/C2=[N+](CCCCCCCCCCCCCCCCCC)c3ccccc3C2(C)C)C(C)(C)c2ccccc21.[I-] [free DiR, 1,1-dioctadecyl-3,3,3′,3′-tetramethylindotricarbocyanine-iodide]",Visible abnormality,No visible abnormality
